The values below come from patent US9616046B2, “Hepatocyte-proliferating agent” (JAPAN BIO PRODUCTS CO., LTD., priority 2013, dated 2017).

In the series the test system is rat normal hepatocytes. Description: Intracellular signaling pathway analysis using kinase inhibitors (DNA synthesis activity, BrdU ELISA). The following applies: PARI-S001 (pyroglutamic acid 10 mM) plus inhibitor; PD98059, SB203580, LY294002 6.3-50 μM, rapamycin 1.6-12.5 ng/mL; 0.5% DMSO; 22 hours. The series is classed as cell-based. As for the experimental part: The intracellular signaling pathway analysis was carried out in order to clarify through which intracellular signaling pathway the PARI-S001 promoted cell proliferation activity. PARI-S001 and various kinase inhibitors were used to measure the cell proliferation activity. The measurement method used was the same method as that in the above-described <Normal Cell Proliferation Test>. The rat normal hepatocytes were cultured for 3 hours after seeding, followed by replacement with the medium to which […] (pyroglutamic acid concentration: 10 mM) and each kinase inhibitor were simultaneously added. The concentration of rapamycin (an inhibitor of mTOR) was adjusted to a final concentration of 1.6 ng/mL, 3.1 ng/mL, 6.3 ng/mL, or 12.5 ng/mL. The concentration of PD98059 (an inhibitor of MEK1 and MEK2), SB203580 (an inhibitor of p38 of MAPK), and LY294002 (an inhibitor of PI3K) was adjusted to a final concentration of 6.3 μM, 12.5 μM, 25 μM, or 50 μM. To promote the dissolution of each kinase inhibitor, dimethyl sulfoxide (hereinafter abbreviated as “DMSO”) was added to a final concentration of 0.5% to the medium. Similarly, DMSO was added to a final concentration of 0.5% to the control. Culture was further carried out for 22 hours after medium replacement, followed by evaluating DNA synthesis activity using a Cell Proliferation ELISA BrdU (colorimetric) Kit (Roche Co., Ltd.).
On the technique in general: Dividing cells build labelled thymidine or BrdU into new DNA.

`COc1cccc(-c2cc(=O)c3ccccc3o2)c1N` [PD98059]: the “DNA synthesis activity in rat normal hepatocytes on simultaneous addition of PARI-S001 and kinase inhibitor” value is “suppress DNA synthesis activity in the rat normal hepatocytes depending on the concentration of the inhibitor”.
